# Biological target: T1, human ferroportin (Homo sapiens, UniProt Q9NP59)
# T1 construct: luciferase reporter (probably NanoLuc, inferred from the Nano-Glo Luciferase Assay System read-out); expressed in transfected cells; host or cells: CHO cells, stably transfected, expression induced with doxycycline
# T1 sequence (Q9NP59 1-571): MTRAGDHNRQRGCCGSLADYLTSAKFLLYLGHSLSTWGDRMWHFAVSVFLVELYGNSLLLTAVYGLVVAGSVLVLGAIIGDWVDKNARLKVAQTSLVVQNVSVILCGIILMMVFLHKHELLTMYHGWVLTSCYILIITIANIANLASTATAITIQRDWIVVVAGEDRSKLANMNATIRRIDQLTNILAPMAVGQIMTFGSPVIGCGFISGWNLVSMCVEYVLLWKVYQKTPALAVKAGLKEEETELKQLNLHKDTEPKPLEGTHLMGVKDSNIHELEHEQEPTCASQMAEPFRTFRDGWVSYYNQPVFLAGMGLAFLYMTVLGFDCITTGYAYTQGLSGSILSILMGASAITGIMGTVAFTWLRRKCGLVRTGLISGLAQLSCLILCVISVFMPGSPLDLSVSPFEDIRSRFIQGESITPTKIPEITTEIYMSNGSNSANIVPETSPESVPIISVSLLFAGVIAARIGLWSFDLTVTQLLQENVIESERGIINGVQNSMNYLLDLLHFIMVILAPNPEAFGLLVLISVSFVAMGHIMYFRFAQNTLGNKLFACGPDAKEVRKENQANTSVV
# Test: In-vitro ferroportin internalization assay (luciferase reporter)
# Format: cell-based
# Conditions: average pEC50; stably-transfected CHO cell line expressing human ferroportin tagged to a luciferase reporter; 6 h incubation with test compound
# Method: The protocol for this assay is generally as described in WO2018/128828, incorporated herein by reference in its entirety. Functional internalization of ferroportin protein was measured using a stably-transfected CHO cell line expressing the human ferroportin tagged to a luciferase reporter. Cells were plated for 24 h in the presence of ferric ammonium citrate (FAC). Ferroportin protein expression was induced with doxycycline for 24 h. The next day, the compounds were added. Test compounds were dissolved in DMSO. Cells were incubated with the test compounds for 6 h, and subsequently luciferase activity was measured using the Nano-Glo Luciferase Assay System and Glomax (Promega, Madison, Wis.). The average pEC50 was determined for the test compounds.
row,Structure (SMILES),pEC50
1,"c1ccc(-c2csc3nc(-c4ccccn4)nc(N4CCOCC4)c23)cc1 [Compound 208, 4-[5-phenyl-2-(pyridin-2-yl)thieno[2,3-d]pyrimidin-4-yl]morpholine]",5.9
2,"COCC(C)Nc1nc(-c2ccccn2)nc2sc(C)c(-c3ccccc3)c12 (stereo not drawn) [Compound 209, N-(1-methoxypropan-2-yl)-6-methyl-5-phenyl-2-(pyridin-2-yl)thieno[2,3-d]pyrimidin-4-amine]",6
3,"COCCN(CCOC)c1nc(-c2ccccn2)nc2sc(-c3ccccc3)cc12 [Compound 210, N,N-bis(2-methoxyethyl)-6-phenyl-2-(pyridin-2-yl)thieno[2,3-d]pyrimidin-4-amine]",6.4
4,"COCCN(CCOC)c1nc(-c2ccccn2)nc2scc(-c3ccccc3)c12 [Compound 211, N,N-bis(2-methoxyethyl)-5-phenyl-2-(pyridin-2-yl)thieno[2,3-d]pyrimidin-4-amine]",6.7
5,"COCCNc1nc(-c2ccccn2)nc2scc(-c3ccccc3)c12 [Compound 212, N-(2-methoxyethyl)-5-phenyl-2-(pyridin-2-yl)thieno[2,3-d]pyrimidin-4-amine]",5.9
6,"OCCOCCNc1nc(-c2ccccn2)nc2scc(-c3ccccc3)c12 [Compound 213, 2-(2-{[5-phenyl-2-(pyridin-2-yl)thieno[2,3-d]pyrimidin-4-yl]amino}ethoxy)ethan-1-ol]",5.7
7,"CC(=O)N1CCN(c2nc(-c3ccccn3)nc3scc(-c4ccccc4)c23)CC1 [Compound 214, 1-{4-[5-phenyl-2-(pyridin-2-yl)thieno[2,3-d]pyrimidin-4-yl]piperazin-1-yl}ethan-1-one]",5.8
8,"CC(Nc1nc(-c2ccccn2)nc2scc(-c3ccccc3)c12)C(=O)NC(C)(C)C (stereo not drawn) [Compound 215, N-tert-butyl-2-{[5-phenyl-2-(pyridin-2-yl)thieno[2,3-d]pyrimidin-4-yl]amino}propanamide]",6.8
9,"CNC(=O)CCN(C)c1nc(-c2ccccn2)nc2scc(-c3ccccc3)c12 [Compound 216, N-methyl-3-{methyl[5-phenyl-2-(pyridin-2-yl)thieno[2,3-d]pyrimidin-4-yl]amino}propanamide]",5.7
10,"CNC(=O)CNc1nc(-c2ccccn2)nc2scc(-c3ccccc3)c12 [Compound 217, N-methyl-2-{[5-phenyl-2-(pyridin-2-yl)thieno[2,3-d]pyrimidin-4-yl]amino}acetamide]",5.3
11,"O=C(CNc1nc(-c2ccccn2)nc2scc(-c3ccccc3)c12)NC1CC1 [Compound 218, N-cyclopropyl-2-{[5-phenyl-2-(pyridin-2-yl)thieno[2,3-d]pyrimidin-4-yl]amino}acetamide]",5.5
12,"CCCNC(=O)CNc1nc(-c2ccccn2)nc2scc(-c3ccccc3)c12 [Compound 219, 2-{[5-phenyl-2-(pyridin-2-yl)thieno[2,3-d]pyrimidin-4-yl]amino}-N-propylacetamide]",6
13,"NC(=O)NCCCCNc1nc(-c2ccccn2)nc2scc(-c3ccccc3)c12 [Compound 220, (4-{[5-phenyl-2-(pyridin-2-yl)thieno[2,3-d]pyrimidin-4-yl]amino}butyl)urea]",6
14,"O=C1CCN(c2nc(-c3ccccn3)nc3scc(-c4ccccc4)c23)CC1 [Compound 221, 1-[5-phenyl-2-(pyridin-2-yl)thieno[2,3-d]pyrimidin-4-yl]piperidin-4-one]",6
15,"OC1CCN(c2nc(-c3ccccn3)nc3scc(-c4ccccc4)c23)CC1 [Compound 222, 1-[5-phenyl-2-(pyridin-2-yl)thieno[2,3-d]pyrimidin-4-yl]piperidin-4-ol]",6
16,"CN(CCO)c1nc(-c2ccccn2)nc2sc(-c3ccccc3)cc12 [Compound 223, 2-{methyl[6-phenyl-2-(pyridin-2-yl)thieno[2,3-d]pyrimidin-4-yl]amino}ethan-1-ol]",5.6
17,"OCCN1CCN(c2nc(-c3ccccn3)nc3scc(-c4ccccc4)c23)CC1 [Compound 224, 2-{4-[5-phenyl-2-(pyridin-2-yl)thieno[2,3-d]pyrimidin-4-yl]piperazin-1-yl}ethan-1-ol]",5.3
18,"OCCNc1nc(-c2ccccn2)nc2scc(-c3ccccc3)c12 [Compound 225, 2-{[5-phenyl-2-(pyridin-2-yl)thieno[2,3-d]pyrimidin-4-yl]amino}ethan-1-ol]",5.3
19,"CS(=O)(=O)CCNc1nc(-c2ccccn2)nc2scc(-c3ccccc3)c12 [Compound 226, N-(2-methanesulfonylethyl)-5-phenyl-2-(pyridin-2-yl)thieno[2,3-d]pyrimidin-4-amine]",5.8

# Results, then the compound that gave them:
row,pEC50,Structure (SMILES)
1,4.8,"O=C1C(Nc2cc(C(F)(F)F)nc(-c3ccccn3)n2)CN1c1ccc(F)cc1 (stereo not drawn) [Compound 227, 1-(4-fluorophenyl)-3-{[2-(pyridin-2-yl)-6-(trifluoromethyl)pyrimidin-4-yl]amino}azetidin-2-one]"
2,5.7,"O=C1C(Nc2cc(C(F)(F)F)nc(-c3ccccn3)n2)CCN1c1ccccc1 (stereo not drawn) [Compound 228, 1-phenyl-3-{[2-(pyridin-2-yl)-6-(trifluoromethyl)pyrimidin-4-yl]amino}pyrrolidin-2-one]"
3,<5.0,"Cc1cc(NCCCn2ccnc2)nc(-c2ccccn2)n1 [Compound 229, N-[3-(1H-imidazol-1-yl)propyl]-6-methyl-2-(pyridin-2-yl)pyrimidin-4-amine]"
4,5.3,"CCc1cc(NCCN2CCN(CC)CC2)nc(-c2ccccn2)n1 [Compound 230, 6-ethyl-N-[2-(4-ethylpiperazin-1-yl)ethyl]-2-(pyridin-2-yl)pyrimidin-4-amine]"
5,5.4,"Cc1cc(NCCc2cccnc2)nc(-c2ccccn2)n1 [Compound 231, 6-methyl-2-(pyridin-2-yl)-N-[2-(pyridin-3-yl)ethyl]pyrimidin-4-amine]"
6,5.5,"Cc1cc(NCCC(=O)N2CCCCCC2)nc(-c2ccccn2)n1 [Compound 232, 1-(azepan-1-yl)-3-{[6-methyl-2-(pyridin-2-yl)pyrimidin-4-yl]amino}propan-1-one]"
7,5.2,"Cc1cc(NCCNC(=O)Cc2ccccc2)nc(-c2ccccn2)n1 [Compound 233, N-(2-{[6-methyl-2-(pyridin-2-yl)pyrimidin-4-yl]amino}ethyl)-2-phenylacetamide]"
8,5.4,"CCc1cc(NCCNC(=O)NC2CCCCC2)nc(-c2ccccn2)n1 [Compound 234, 1-cyclohexyl-3-(2-{[6-ethyl-2-(pyridin-2-yl)pyrimidin-4-yl]amino}ethyl)urea]"
9,5.3,"Cc1cc(NCCC(=O)NCc2ccncc2)nc(-c2ccccn2)n1 [Compound 235, 3-{[6-methyl-2-(pyridin-2-yl)pyrimidin-4-yl]amino}-N-[(pyridin-4-yl)methyl]propanamide]"
10,5.4,"CCc1cc(NC2CN(c3ccccc3)C2=O)nc(-c2ccccn2)n1 (stereo not drawn) [Compound 236, 3-{[6-ethyl-2-(pyridin-2-yl)pyrimidin-4-yl]amino}-1-phenylazetidin-2-one]"
11,5.4,"Cc1cc(NC[C@@H](O)CN2CCCCC2)nc(-c2ccccn2)n1 [Compound 237, (2R)-1-{[6-methyl-2-(pyridin-2-yl)pyrimidin-4-yl]amino}-3-(piperidine-1-yl)propan-2-ol]"
